In publication PMC8822125, “RW-BP100-4D, a Promising Antimicrobial Candidate With Broad-Spectrum Bactericidal Activity” (Frontiers in Microbiology, 2022):
In brackets after ≈: the same amount, converted by molar mass. Where a SMILES comes first, the peptide text is derived from it.

Columns and labels:
RAW264.7 cells = conditions: peptide 150 μg/mL, 24 h, WST-1, mean ± SD, three repeats
sheep red blood cells = sheep red blood cells in PBS, 37°C, 1 h, OD576, relative to melittin, mean ± SD, three repeats; for Hemolytic rate, 50 μg/mL: 50 μg/mL peptide; for Hemolytic rate, 100 μg/mL: 100 μg/mL peptide; for Hemolytic rate, 150 μg/mL: 150 μg/mL peptide; for Hemolytic rate, 300 μg/mL: 300 μg/mL peptide;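 on all read-outs here: hemolysis expressed in % from supernatant absorbance, with PBS-treated cells as 0% baseline and melittin as 100%, peptide mixed 1:1 with an 8% v/v erythrocyte suspension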
[1] = system: Staphylococcus aureus ATCC29213; test: MIC/MBC, broth microdilution; format: cell-based; conditions: Table 1; broth microdilution CLSI M100-S25, MH broth, 37°C, 18 h, three independent repeats
MAC-T cells = conditions: peptide 150 μg/mL, 24 h, WST-1, mean ± SD, three repeats
[2] = system: Escherichia coli ATCC25922; conditions: Table 1; broth microdilution CLSI M100-S25, MH broth, 37°C, 18 h, three independent repeats
various microorganisms = test: MIC/MBC, summary statements over several strains; format: cell-based; conditions: summary of Table 1

Row | SMILES | Cell survival rate, RAW264.7 (RAW264.7 cells) | Hemolytic rate, 50 μg/mL (sheep red blood cells) | Hemolytic rate, 100 μg/mL (sheep red blood cells) | Hemolytic rate, 150 μg/mL (sheep red blood cells) | Hemolytic rate, 300 μg/mL (sheep red blood cells) | MIC Staphylococcus aureus ATCC29213 [1] | Cell survival rate, MAC-T (MAC-T cells) | MIC Escherichia coli ATCC25922 [2] | MIC against S. aureus ATCC29213 and E. coli ATCC25922 (both strains together) (various microorganisms)
1 | CC[C@H](C)[C@H](NC(=O)[C@H](CCCNC(=N)N)NC(=O)[C@H](CCCNC(=N)N)NC(=O)[C@H](Cc1ccccc1)NC(=O)[C@@H](CC(C)C)NC(=O)[C@H](CCCNC(=N)N)NC(=O)[C@@H](N)CCCNC(=N)N)C(=O)N[C@@H](CC(C)C)C(=O)N[C@@H](CCCNC(=N)N)C(=O)N[C@@H](Cc1c[nH]c2ccccc12)C(=O)N[C@@H](CC(C)C)C(N)=O [RW-BP100-3D] (HELM PEPTIDE1{R.R.[dL].F.R.R.I.L.R.W.L.[am]}$$$$V2.0) | 7.69 ± 7.89% | 3.49 ± 0.76% | 4.04 ± 0.20% | 38.13 ± 3.12% | 55.73 ± 5.27% | 25 µg/mL (≈ 15.8 µM) | 50.63 ± 2.36% | 50 µg/mL (≈ 31.6 µM) | 
2 | CC[C@H](C)[C@H](NC(=O)[C@H](CCCNC(=N)N)NC(=O)[C@H](CCCNC(=N)N)NC(=O)[C@H](Cc1ccccc1)NC(=O)[C@H](CC(C)C)NC(=O)[C@H](CCCNC(=N)N)NC(=O)[C@@H](N)CCCNC(=N)N)C(=O)N[C@@H](CC(C)C)C(=O)N[C@@H](CCCNC(=N)N)C(=O)N[C@H](Cc1c[nH]c2ccccc12)C(=O)N[C@@H](CC(C)C)C(N)=O [RW-BP100-10D] (HELM PEPTIDE1{R.R.L.F.R.R.I.L.R.[dW].L.[am]}$$$$V2.0) | 92.19 ± 6.32% | 0.31 ± 0.37% | 1.28 ± 0.19% | 19.20 ± 2.16% | 45.08 ± 4.70% | 50 µg/mL (≈ 31.6 µM) | 94.41 ± 4.26% | 50 µg/mL (≈ 31.6 µM) | 
3 | CC[C@H](C)[C@H](NC(=O)[C@H](CCCNC(=N)N)NC(=O)[C@@H](CCCNC(=N)N)NC(=O)[C@H](Cc1ccccc1)NC(=O)[C@H](CC(C)C)NC(=O)[C@H](CCCNC(=N)N)NC(=O)[C@@H](N)CCCNC(=N)N)C(=O)N[C@@H](CC(C)C)C(=O)N[C@@H](CCCNC(=N)N)C(=O)N[C@@H](Cc1c[nH]c2ccccc12)C(=O)N[C@@H](CC(C)C)C(N)=O [RW-BP100-5D] (HELM PEPTIDE1{R.R.L.F.[dR].R.I.L.R.W.L.[am]}$$$$V2.0) | 39.05 ± 1.65% | 1.26 ± 0.54% | 2.49 ± 0.72% | 29.72 ± 0.94% | 51.41 ± 4.64% | 6 µg/mL (≈ 3.79 µM) | 77.84 ± 5.63% | 6 µg/mL (≈ 3.79 µM) | 3 to 12 µg/mL
4 | CC[C@H](C)[C@H](NC(=O)[C@@H](CCCNC(=N)N)NC(=O)[C@H](CCCNC(=N)N)NC(=O)[C@H](Cc1ccccc1)NC(=O)[C@H](CC(C)C)NC(=O)[C@H](CCCNC(=N)N)NC(=O)[C@@H](N)CCCNC(=N)N)C(=O)N[C@@H](CC(C)C)C(=O)N[C@@H](CCCNC(=N)N)C(=O)N[C@@H](Cc1c[nH]c2ccccc12)C(=O)N[C@@H](CC(C)C)C(N)=O [RW-BP100-6D] (HELM PEPTIDE1{R.R.L.F.R.[dR].I.L.R.W.L.[am]}$$$$V2.0) | 5.92 ± 2.63% | 2.33 ± 1.51% | 3.25 ± 0.23% | 32.57 ± 1.20% | 55.81 ± 2.87% | 12 µg/mL (≈ 7.58 µM) | 58.87 ± 3.45% | 12 µg/mL (≈ 7.58 µM) | 3 to 12 µg/mL
5 | CC[C@H](C)[C@H](NC(=O)[C@H](CCCNC(=N)N)NC(=O)[C@H](CCCNC(=N)N)NC(=O)[C@H](Cc1ccccc1)NC(=O)[C@H](CC(C)C)NC(=O)[C@H](CCCNC(=N)N)NC(=O)[C@@H](N)CCCNC(=N)N)C(=O)N[C@@H](CC(C)C)C(=O)N[C@@H](CCCNC(=N)N)C(=O)N[C@@H](Cc1c[nH]c2ccccc12)C(=O)N[C@H](CC(C)C)C(N)=O [RW-BP100-11D] (HELM PEPTIDE1{R.R.L.F.R.R.I.L.R.W.[dL].[am]}$$$$V2.0) | 83.27 ± 4.56% | 0.65 ± 0.60% | 1.42 ± 0.15% | 17.36 ± 1.92% | 46.97 ± 6.45% | >50 µg/mL | 77.81 ± 5.28% | >50 µg/mL | > 50 µg/mL
6 | CC[C@H](C)[C@H](NC(=O)[C@H](CCCNC(=N)N)NC(=O)[C@H](CCCNC(=N)N)NC(=O)[C@H](Cc1ccccc1)NC(=O)[C@H](CC(C)C)NC(=O)[C@H](CCCNC(=N)N)NC(=O)[C@@H](N)CCCNC(=N)N)C(=O)N[C@@H](CC(C)C)C(=O)N[C@H](CCCNC(=N)N)C(=O)N[C@@H](Cc1c[nH]c2ccccc12)C(=O)N[C@@H](CC(C)C)C(N)=O [RW-BP100-9D] (HELM PEPTIDE1{R.R.L.F.R.R.I.L.[dR].W.L.[am]}$$$$V2.0) | 91.33 ± 5.63% | 0.63 ± 0.24% | 1.53 ± 0.09% | 18.14 ± 0.20% | 45.18 ± 2.41% | 25 µg/mL (≈ 15.8 µM) | 92.50 ± 2.36% | 25 µg/mL (≈ 15.8 µM) | 
7 | CC[C@H](C)[C@H](NC(=O)[C@H](CCCNC(=N)N)NC(=O)[C@H](CCCNC(=N)N)NC(=O)[C@H](Cc1ccccc1)NC(=O)[C@H](CC(C)C)NC(=O)[C@H](CCCNC(=N)N)NC(=O)[C@H](N)CCCNC(=N)N)C(=O)N[C@@H](CC(C)C)C(=O)N[C@@H](CCCNC(=N)N)C(=O)N[C@@H](Cc1c[nH]c2ccccc12)C(=O)N[C@@H](CC(C)C)C(N)=O [RW-BP100-1D] (HELM PEPTIDE1{[dR].R.L.F.R.R.I.L.R.W.L.[am]}$$$$V2.0) | 9.55 ± 2.45% | 4.61 ± 0.47% | 5.49 ± 0.23% | 39.81 ± 0.20% | 52.88 ± 3.06% | 25 µg/mL (≈ 15.8 µM) | 52.71 ± 5.68% | 12 µg/mL (≈ 7.58 µM) | 
8 | CC[C@@H](C)[C@@H](NC(=O)[C@H](CCCNC(=N)N)NC(=O)[C@H](CCCNC(=N)N)NC(=O)[C@H](Cc1ccccc1)NC(=O)[C@H](CC(C)C)NC(=O)[C@H](CCCNC(=N)N)NC(=O)[C@@H](N)CCCNC(=N)N)C(=O)N[C@@H](CC(C)C)C(=O)N[C@@H](CCCNC(=N)N)C(=O)N[C@@H](Cc1c[nH]c2ccccc12)C(=O)N[C@@H](CC(C)C)C(N)=O [RW-BP100-7D] (HELM PEPTIDE1{R.R.L.F.R.R.[dI].L.R.W.L.[am]}$$$$V2.0) | 93.74 ± 1.25% | 0.53 ± 1.12% | 1.11 ± 0.19% | 16.17 ± 3.36% | 45.65 ± 5.13% | 25 µg/mL (≈ 15.8 µM) | 96.41 ± 3.75% | 25 µg/mL (≈ 15.8 µM) | 
9 | CC[C@H](C)[C@H](NC(=O)[C@H](CCCNC(=N)N)NC(=O)[C@H](CCCNC(=N)N)NC(=O)[C@H](Cc1ccccc1)NC(=O)[C@H](CC(C)C)NC(=O)[C@@H](CCCNC(=N)N)NC(=O)[C@@H](N)CCCNC(=N)N)C(=O)N[C@@H](CC(C)C)C(=O)N[C@@H](CCCNC(=N)N)C(=O)N[C@@H](Cc1c[nH]c2ccccc12)C(=O)N[C@@H](CC(C)C)C(N)=O [RW-BP100-2D] (HELM PEPTIDE1{R.[dR].L.F.R.R.I.L.R.W.L.[am]}$$$$V2.0) | 6.83 ± 5.69% | 4.83 ± 1.08% | 5.99 ± 0.79% | 39.16 ± 1.75% | 62.12 ± 6.27% | 25 µg/mL (≈ 15.8 µM) | 63.07 ± 3.23% | 12 µg/mL (≈ 7.58 µM) | 
